# Measurements from US20050059626A1, “Methods of preventing and treating viral infections using immunomodulatory polynucleotide sequences” (priority 2000, published 2005).
# Read-outs that look alike come from different tables or passages of the source.
# Tests used:
# [1] = system: canine papillomavirus; assay: Canine oral papilloma model, time to lesion regression; assay type: in vivo, Beagle puppies
# Experimental: A model of canine oral papilloma was used to test the efficacy of ISS on papilloma. Beagle puppies were inoculated in the bucal mucosa with canine papillomavirus and developing papilloma lesions were monitored daily. Four groups of seven dogs each were treated with differing amount of ISS oligonucleotide (5′-[…]-3′ (SEQ ID NO:1), phosphorothioate backbone). One group received 50 μg ISS twice a week, another group received 500 μg ISS twice a week, the third group received 500 μg ISS one time only at the first signs of papilloma lesion development (injected within the papilloma lesion) and the fourth group (control group) received PBS twice a week. All dogs were monitored daily for the development of lesions and the time to regression.
# [2] = system: CRPV-E8m; assay: Rabbit papilloma model (CRPV-E8m), papilloma geometric mean diameter
# Experimental: In another experiment, a mutant of CRPV which induces small papillomas, CRPV-E8m, was used to induce papillomas on five rabbit treatment groups (five rabbits per group). In each animal, papillomas on the left side of the animal received treatments and papillomas on the right side were untreated. Four of the treatment groups received doses between 100 μg and 2000 μg of ISS as intradermal injections per papilloma at several treatment regimes and the fifth group received injections of PBS as control, as outlined below.
# Four papillomas, initiated with CRPV-E8m plasmid DNA, were established on each rabbit. Skin at the site of papilloma initiation was made hyperplastic using a mixture of turpentine and acetone prior to viral DNA administration. The size of papillomas was measured (three dimensions, in mm) and the GMD calculated for each papilloma.
# [3] = system: influenza A/Mississippi (H3N2) virus; assay type: in vivo, mice; conditions: for Pulmonary virus titer (log10/lung) Mean / Pulmonary virus titer (log10/lung) in mouse no. 1 / Pulmonary virus titer (log10/lung) in mouse no. 2 / Pulmonary virus titer (log10/lung) in mouse no. 3 / Pulmonary virus titer (log10/lung) in mouse no. 4 / Pulmonary virus titer (log10/lung) in mouse no. 5 / Pulmonary virus titer (log10/lung) in mouse no. 6 / Pulmonary virus titer (log10/lung) in mouse no. 7: non-ISS = SEQ ID NO:9
# [4] = system: influenza A/Mississippi (H3N2) virus; assay type: in vivo, mice; conditions: for Pulmonary virus titer (log10/lung) Mean / Pulmonary virus titer (log10/lung) in mouse no. 1 / Pulmonary virus titer (log10/lung) in mouse no. 2 / Pulmonary virus titer (log10/lung) in mouse no. 3 / Pulmonary virus titer (log10/lung) in mouse no. 4 / Pulmonary virus titer (log10/lung) in mouse no. 5: non-ISS = SEQ ID NO:10
# [5] = system: HSV-2 strain MS; assay: Recurrent genital HSV-2 disease in guinea pigs; assay type: in vivo, Swiss Hartley guinea pigs
# [6] = system: HSV-1; assay: Viral titer from Vero cells pre-treated with oligonucleotide, HSV-1; assay type: cell-based, African Green monkey (Vero cells); conditions: for Viral titer, percent of control titer: cells infected with HSV-1
# Experimental: Vero cells, a cell line derived from African Green monkey kidney, were pre-treated with varying concentrations of ISS or non-ISS oligonucleotides for varying times prior to the addition of HSV-1 or HSV-2. Oligonucleotides were used at 1 μg/ml or 10 μg/ml and the cells were incubated with the oligonucleotides for 30 seconds, 10 minutes or 24 hours. Viral titers were calculated as a percent of control titer generated by cells not treated with the oligonucleotides. The data are expressed as percent of control titer.
# [7] = system: HBV; assay: Chronic HBV model: serum HBV DNA and HBsAg in STC transgenic mice; assay type: in vivo, STC strain transgenic mice
# Experimental: ISS activity was tested in an animal model of chronic hepatitis. An ISS-containing phosphorothioate oligonucleotide (5′-[…]-3′) (SEQ ID NO:1), was delivered to STC strain transgenic mice, followed by measurement of HBV DNA and HBsAg production.
# STC line mice were developed at Stanford University by Patricia Marion. The majority of these mice secrete HBV of the Ayw genotype (Galibert et al. (1979) Nature 281:646) to titers of 10^6-8 viral genome equivalents per ml of serum. STC mice were derived from the FVB strain, and were constructed by microinjection of HBV genomic DNA.
# Approximately one month old mice were bled and tested for serum levels of HBsAg, which is predictive of viral DNA titer. A pool of 40 STC mice with approximately equal levels of HBsAg were selected and randomly assigned to four treatment groups of 10 animals each. The groups were treated as follows: • 1. 100 μg of ISS injected subcutaneously, once per week for 3 weeks (days 0, 7, 14) • 2. 100 μg of ISS injected subcutaneously, one injection at day 14 • 3. 100 ng of murine 1L-12 injected intraperitoneally on days 12, 13, and 14. • 4. PBS injected subcutaneously (days 0, 7, 14)
# Blood samples were taken at day 0, 7, 14, 15 (22 hr after last IL-12 injection), 18, 28 and 35. Serum prepared from the blood samples was tested for HBV DNA by quantitative PCR (testing performed under contract by Hepadnavirus Testing, Inc.), and HBsAg using a commercially available EIA kit for HBsAg from Abbott Laboratories. Animals were sacrificed at day 35 and livers were collected for histologic analysis.
# [8] = system: HSV-2; assay: Viral titer after pre-treating HSV-2 virus with oligonucleotide, Vero cells; assay type: cell-based, African Green monkey (Vero cells)
# Experimental: HSV-1 or HSV-2 virus was pre-treated with varying concentrations of ISS or non-ISS oligonucleotides for 10 minutes prior to adding the mixture to plated Vero cells. Oligonucleotides were used at 1 μg/ml or 10 μg/ml. Viral titers were calculated as a percent of control titer generated by cells not treated with the oligonucleotides. The data are expressed as percent of control titer.
# [9] = 50 μg IN Day 0 shortly before virus, lungs Day 4
# [10] = 50 μg IN Day −3, virus Day 0, lungs Day 4
# [11] = 50 μg IP Day −1, virus Day 0, lungs Day 4
# [12] = 50 μg IP Day −3, virus Day 0, lungs Day 4
substance,measurement,setting,value
5′-TGACTGTGAACGTTCGAGATGA-3′ [SEQ ID NO: 1],Average rate of lesion regression,[1]; 500 μg one time at first signs of papilloma lesion,higher average rate of lesion regression than untreated dogs
same,Average time for rapid regression,"[1]; 500 μg one time at first signs of papilloma, injected within the lesion",25.1 days
same,Regression time,[1]; other treatment groups: 50 μg or 500 μg twice a week,did not show a marked difference in regression time
same,"Size of papillomas (GMD), treated versus untreated","[2]; Treatment Group C: 500 μg/injection, 1 time/week days 47-86, intradermal",reduction in the size of the ISS treated papillomas compared to untreated papillomas
same,"Papilloma growth rates, treated versus untreated papillomas","[2]; Treatment Groups A, B, D (100 μg 3x/week; 100 μg 1x/week; 2000 μg weeks 7 and 10), intradermal",Minimal differences
same,Pulmonary virus titer (log10/lung) Mean,[3]; [9],4.6 log10/lung
same,Pulmonary virus titer (log10/lung) in mouse no. 1,[3]; [9],4 log10/lung
same,Pulmonary virus titer (log10/lung) in mouse no. 2,[3]; [9],5.5 log10/lung
same,Pulmonary virus titer (log10/lung) in mouse no. 3,[3]; [9],5 log10/lung
same,Pulmonary virus titer (log10/lung) in mouse no. 4,[3]; [9],4.5 log10/lung
same,Pulmonary virus titer (log10/lung) in mouse no. 5,[3]; [9],4.5 log10/lung
same,Pulmonary virus titer (log10/lung) in mouse no. 6,[3]; [9],4.5 log10/lung
same,Pulmonary virus titer (log10/lung) in mouse no. 7,[3]; [9],4.5 log10/lung
same,Pulmonary virus titer (log10/lung) Mean,[3]; [10],4.7 log10/lung
same,Pulmonary virus titer (log10/lung) in mouse no. 1,[3]; [10],5.5 log10/lung
same,Pulmonary virus titer (log10/lung) in mouse no. 2,[3]; [10],4 log10/lung
same,Pulmonary virus titer (log10/lung) in mouse no. 3,[3]; [10],6 log10/lung
same,Pulmonary virus titer (log10/lung) in mouse no. 4,[3]; [10],5.5 log10/lung
same,Pulmonary virus titer (log10/lung) in mouse no. 5,[3]; [10],5 log10/lung
same,Pulmonary virus titer (log10/lung) in mouse no. 6,[3]; [10],4 log10/lung
same,Pulmonary virus titer (log10/lung) in mouse no. 7,[3]; [10],3 log10/lung
same,Reduction in influenza virus titer compared to PBS,"[3]; IN, 50 μg/mouse before viral infection",fails to cause a satisfactory significant reduction in virus titer
same,Pulmonary virus titer (log10/lung) Mean,[4]; [11],6.8 log10/lung
same,Pulmonary virus titer (log10/lung) in mouse no. 1,[4]; [11],6.3 log10/lung
same,Pulmonary virus titer (log10/lung) in mouse no. 2,[4]; [11],6.8 log10/lung
same,Pulmonary virus titer (log10/lung) in mouse no. 3,[4]; [11],7.3 log10/lung
same,Pulmonary virus titer (log10/lung) in mouse no. 4,[4]; [11],6.8 log10/lung
same,Pulmonary virus titer (log10/lung) in mouse no. 5,[4]; [11],6.8 log10/lung
same,Pulmonary virus titer (log10/lung) Mean,[4]; [12],6.9 log10/lung
same,Pulmonary virus titer (log10/lung) in mouse no. 1,[4]; [12],7.3 log10/lung
same,Pulmonary virus titer (log10/lung) in mouse no. 2,[4]; [12],5.8 log10/lung
same,Pulmonary virus titer (log10/lung) in mouse no. 3,[4]; [12],7.3 log10/lung
same,Pulmonary virus titer (log10/lung) in mouse no. 4,[4]; [12],6.8 log10/lung
same,Pulmonary virus titer (log10/lung) in mouse no. 5,[4]; [12],7.3 log10/lung
same,Reduction in influenza virus titer compared to PBS,"[4]; IP, 50 μg/mouse before viral infection",fails to cause a satisfactory significant reduction in virus titer
same,Frequency of recurrences (recurrent lesions),"[5]; 200 μg at 21 days PI (one group also days 42 and 63), ANOVA p=0.012",significant reduction in the frequency of recurrences
same,Effect on frequency of viral shedding,[5]; single topical treatment 1 mg at day 21,unaffected
same,Magnitude of viral shedding,"[5]; single topical treatment 1 mg at day 21, vs control groups, p<0.001",significantly reduced
same,Cumulative mean recurrent lesion days,"[5]; single topical treatment 1 mg at day 21, vs non-ISS control or untreated",significantly decreased the cumulative mean recurrent lesion days
same,Effect on viral titers from infected cells,"[6]; cells incubated with ISS prior to HSV infection in vitro (HSV-1 and HSV-2, Table 12)",no effect on the viral titers
same,"Viral titer, percent of control titer","[6]; cells pre-treated 1 μg/ml, 30 sec",98% of control titer
same,"Viral titer, percent of control titer","[6]; cells pre-treated 1 μg/ml, 10 min",96% of control titer
same,"Viral titer, percent of control titer","[6]; cells pre-treated 1 μg/ml, 24 hr",89% of control titer
same,"Viral titer, percent of control titer","[6]; cells pre-treated 10 μg/ml, 30 sec",100% of control titer
same,"Viral titer, percent of control titer","[6]; cells pre-treated 10 μg/ml, 10 min",102% of control titer
same,"Viral titer, percent of control titer","[6]; cells pre-treated 10 μg/ml, 24 hr",82% of control titer
same,Reduction of mean viral DNA titer,"[7]; Group 2: single SC injection 100 μg at day 14, three days after injection",90 fold
same,Serum HBsAg levels versus PBS controls,"[7]; STC mice, 100 μg SC",trend towards decreased average HBsAg values
same,Effect on serum HBV DNA viral titer,"[7]; STC mice, ISS 100 μg SC, murine IL-12 100 ng IP days 12, 13, 14",effective in reducing viral titer
same,"Viral titer, percent of control titer",[8]; HSV-2 virus pre-treated 10 minutes with 1 μg/ml,96% of control titer
same,"Viral titer, percent of control titer",[8]; HSV-2 virus pre-treated 10 minutes with 10 μg/ml,102% of control titer
